{"source": "ChEMBL document CHEMBL1201862", "about": "“PubChem BioAssay data set” (2004)", "test_in_all_cases": "NCI-60 cell line screen, 48 h", "key": {"[1]": {"test_system": "UACC-62"}, "[2]": {"test_system": "CAKI-1"}, "[3]": {"test_system": "UACC-257"}, "[4]": {"test_system": "LOX IMVI"}, "[5]": {"test_system": "NCI-H460"}, "[6]": {"test_system": "XF498"}, "[7]": {"test_system": "SK-MEL-5"}, "[8]": {"test_system": "SF-268"}, "[9]": {"test_system": "K562"}, "[10]": {"test_system": "A549"}, "[11]": {"test_system": "LXFL 529"}, "[12]": {"test_system": "OVCAR-8"}, "[13]": {"test_system": "RPMI-8226"}, "[14]": {"test_system": "UO-31"}, "[15]": {"test_system": "M19-MEL"}, "[16]": {"test_system": "NCI-H226"}, "[17]": {"test_system": "ACHN"}, "[18]": {"test_system": "SNB-75"}, "[19]": {"test_system": "MOLT-4"}, "[20]": {"test_system": "M14"}, "[21]": {"test_system": "SN12C"}, "[22]": {"test_system": "SW-620"}, "[23]": {"test_system": "HCC 2998"}, "[24]": {"test_system": "TK-10"}, "[25]": {"test_system": "CCRF-CEM"}, "[26]": {"test_system": "NCI-H522"}, "[27]": {"test_system": "KM12"}, "[28]": {"test_system": "HCT-15"}, "[29]": {"test_system": "EKVX"}, "[30]": {"test_system": "DMS-273"}, "[31]": {"test_system": "SK-OV-3"}, "[32]": {"test_system": "A498"}, "[33]": {"test_system": "HT-29"}, "[34]": {"test_system": "OVCAR-4"}, "[35]": {"test_system": "Malme-3M"}, "[36]": {"test_system": "DMS-114"}, "[37]": {"test_system": "SK-MEL-28"}, "[38]": {"test_system": "NCI-H23"}, "[39]": {"test_system": "HL-60"}, "[40]": {"test_system": "SNB-78"}, "[41]": {"test_system": "SK-MEL-2"}, "[42]": {"test_system": "DLD-1"}, "[43]": {"test_system": "COLO 205"}, "[44]": {"test_system": "U-251"}, "[45]": {"test_system": "OVCAR-5"}, "[46]": {"test_system": "KM-20L2"}, "[47]": {"test_system": "SNB-19"}, "[48]": {"test_system": "786-0"}, "[49]": {"test_system": "OVCAR-3"}, "[50]": {"test_system": "HOP-92"}, "[51]": {"test_system": "SF-295"}, "[52]": {"test_system": "IGROV-1"}}, "note": "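A five-concentration, 48-hour dose response in 96-well plates underlies each endpoint, interpolated linearly between surrounding concentrations. GI50 marks 50% less growth.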 Calls of active or inactive are those of the source. Cut-off read from the data, not from the text of the source: active = GI50 up to about 1.1 µM and inactive = higher."}
{"molecule": "Nc1c(-c2cn(Cc3ccccc3)c3ccccc23)[n+]([O-])c2ccccc2[n+]1[O-]", "values": [{"measurement": "GI50", "setting": "[1]", "value": "23.6 µM (inactive)"}, {"measurement": "GI50", "setting": "[2]", "value": "16 µM (inactive)"}, {"measurement": "GI50", "setting": "[3]", "value": "12.8 µM (inactive)"}, {"measurement": "GI50", "setting": "[4]", "value": "24.2 µM (inactive)"}, {"measurement": "GI50", "setting": "[5]", "value": "28.5 µM (inactive)"}, {"measurement": "GI50", "setting": "[6]", "value": "12.6 µM (inactive)"}, {"measurement": "GI50", "setting": "[7]", "value": "21.9 µM (inactive)"}, {"measurement": "GI50", "setting": "[8]", "value": "21.5 µM (inactive)"}, {"measurement": "GI50", "setting": "[9]", "value": "24.5 µM (inactive)"}, {"measurement": "GI50", "setting": "[10]", "value": "30.8 µM (inactive)"}, {"measurement": "GI50", "setting": "[11]", "value": "23.9 µM (inactive)"}, {"measurement": "GI50", "setting": "[12]", "value": "45.4 µM (inactive)"}, {"measurement": "GI50", "setting": "[13]", "value": "24.6 µM (inactive)"}, {"measurement": "GI50", "setting": "[14]", "value": "10.2 µM (inactive)"}, {"measurement": "GI50", "setting": "[15]", "value": "38.9 µM (inactive)"}, {"measurement": "GI50", "setting": "[16]", "value": "6.35 µM (inactive)"}, {"measurement": "GI50", "setting": "[17]", "value": "15.5 µM (inactive)"}, {"measurement": "GI50", "setting": "[18]", "value": "16.4 µM (inactive)"}, {"measurement": "GI50", "setting": "[19]", "value": "16.8 µM (inactive)"}, {"measurement": "GI50", "setting": "[20]", "value": "25.4 µM (inactive)"}, {"measurement": "GI50", "setting": "[21]", "value": "31.8 µM (inactive)"}, {"measurement": "GI50", "setting": "[22]", "value": "51.4 µM (inactive)"}, {"measurement": "GI50", "setting": "[23]", "value": "35.8 µM (inactive)"}, {"measurement": "GI50", "setting": "[24]", "value": "28.3 µM (inactive)"}, {"measurement": "GI50", "setting": "[25]", "value": "27.1 µM (inactive)"}, {"measurement": "GI50", "setting": "[26]", "value": "13.2 µM (inactive)"}, {"measurement": "GI50", "setting": "[27]", "value": "28.8 µM (inactive)"}, {"measurement": "GI50", "setting": "[28]", "value": 27.2, "unit": "µM"}, {"measurement": "GI50", "setting": "[29]", "value": "32.6 µM (inactive)"}, {"measurement": "GI50", "setting": "[30]", "value": "23.8 µM (inactive)"}, {"measurement": "GI50", "setting": "[31]", "value": "24.8 µM (inactive)"}, {"measurement": "GI50", "setting": "[32]", "value": "18.4 µM (inactive)"}, {"measurement": "GI50", "setting": "[33]", "value": "27.2 µM (inactive)"}, {"measurement": "GI50", "setting": "[34]", "value": "43.6 µM (inactive)"}, {"measurement": "GI50", "setting": "[35]", "value": "29.7 µM (inactive)"}, {"measurement": "GI50", "setting": "[36]", "value": "16.7 µM (inactive)"}, {"measurement": "GI50", "setting": "[37]", "value": "25.4 µM (inactive)"}, {"measurement": "GI50", "setting": "[38]", "value": "22 µM (inactive)"}, {"measurement": "GI50", "setting": "[39]", "value": "9.46 µM (inactive)"}, {"measurement": "GI50", "setting": "[40]", "value": "53.8 µM (inactive)"}, {"measurement": "GI50", "setting": "[41]", "value": "23.1 µM (inactive)"}, {"measurement": "GI50", "setting": "[42]", "value": "32.7 µM (inactive)"}, {"measurement": "GI50", "setting": "[43]", "value": "35.3 µM (inactive)"}, {"measurement": "GI50", "setting": "[44]", "value": "32.5 µM (inactive)"}, {"measurement": "GI50", "setting": "[45]", "value": "25.6 µM (inactive)"}, {"measurement": "GI50", "setting": "[46]", "value": "34.6 µM (inactive)"}, {"measurement": "GI50", "setting": "[47]", "value": "36.6 µM (inactive)"}, {"measurement": "GI50", "setting": "[48]", "value": "30.7 µM (inactive)"}, {"measurement": "GI50", "setting": "[49]", "value": "19.8 µM (inactive)"}, {"measurement": "GI50", "setting": "[50]", "value": "8.79 µM (inactive)"}, {"measurement": "GI50", "setting": "[51]", "value": "21.9 µM (inactive)"}, {"measurement": "GI50", "setting": "[52]", "value": "21.7 µM (inactive)"}]}
